In patent publication US10899759B2, “Positive allosteric modulators of the muscarinic acetylcholine receptor M1” (Vanderbilt University, priority 2016, dated 2021):

Biological target: T1, human mAChR M1 (Homo sapiens, UniProt P11229)
T1 construct: host or cells: CHO-K1
T1 sequence (P11229 1-460): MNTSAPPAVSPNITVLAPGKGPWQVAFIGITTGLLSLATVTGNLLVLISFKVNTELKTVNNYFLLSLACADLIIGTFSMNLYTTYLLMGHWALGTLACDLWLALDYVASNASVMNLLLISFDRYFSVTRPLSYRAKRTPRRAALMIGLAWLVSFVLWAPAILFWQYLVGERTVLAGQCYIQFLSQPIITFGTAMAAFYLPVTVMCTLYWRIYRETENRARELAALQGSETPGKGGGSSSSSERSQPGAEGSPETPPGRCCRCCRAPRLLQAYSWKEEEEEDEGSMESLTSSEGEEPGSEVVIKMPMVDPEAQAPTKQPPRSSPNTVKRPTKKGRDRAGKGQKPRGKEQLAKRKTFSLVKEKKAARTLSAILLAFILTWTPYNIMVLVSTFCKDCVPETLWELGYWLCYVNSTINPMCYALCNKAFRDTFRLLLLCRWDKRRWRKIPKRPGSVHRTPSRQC
Test: mAChR M1 cell-based functional assay (calcium mobilization, Fluo-4, FDSS)
Conditions: CHO-K1 cells stably expressing hM1; for Emax: EC20 acetylcholine response, read-out: Human M1 Emax; for EC50: positive allosteric modulator activity as increase in the EC20 acetylcholine response
Method in brief: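 CHO-K1 cells stably expressing muscarinic receptor, loaded with Fluo-4; 11-point 1:3 compound series added and calcium flux read over 300 s at 1 Hz. Agonism from direct calcium rise, PAM activity as potentiation of EC20 acetylcholine, antagonism as decrease of EC80 acetylcholine; four-parameter logistic fits.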

Row | SMILES | Emax | EC50
1 | Cn1ccc2c(Cc3ccc(-c4nccs4)cc3)cc(C(=O)N[C@H]3CCOC[C@@H]3O)nc21 [Compound 59, N-[(3R,4S)-3-hydroxytetrahydropyran-4-yl]-1-methy1-4-[(4-thiazol-2-ylphenyl)methyl]pyrrolo[2,3-b]pyridine-6-carboxamide] | 57.3% | 30 nM
2 | Cn1cc(-c2ccc(Cc3cc(C(=O)NC4CCOCC4(C)C)nc4sccc34)cn2)cn1 (stereo not shown) [Compound 117, N-(3,3-dimethyltetrahydropyran-4-yl)-4-[[6-(1-methylpyrazol-4-yl)-3-pyridyl]methyl]thieno[2,3-b]pyridine-6-carboxamide] | 55.7% | 150 nM
3 | CCn1ccc2c(Cc3ccc(-n4cccn4)cc3)cc(C(=O)N[C@H]3CCCC[C@@H]3O)nc21 [Compound 10, 1-ethyl-N-[(1S,2S)-2-hydroxycyclohexyl]-4-[(4-pyrazol-1-ylphenyl)methyl]pyrrolo[2,3-b]pyridine-6-carboxamide] | 69.9% | 60 nM
4 | Cn1ccc(-c2ccc(Cc3cc(C(=O)N[C@@H]4CC[C@H]4O)nc4c3ccn4C)cc2)n1 [Compound 41, N-[(1R,2R)-2-hydroxycyclobutyl]-1-methy1-4-[[4-(1-methylpyrazol-3-yl)phenyl]methyl]pyrrolo[2,3-b]pyridine-6-carboxamide] | 78% | 1050 nM
5 | Cn1ncc2c(Cc3ccc(-c4cscn4)cc3)cc(C(=O)N[C@H]3CC[C@@H]3O)nc21 [Compound 31, N-[(1S,2S)-2-hydroxycyclobutyl]-1-methyl-4-[(4-thiazol-4-ylphenyl)methyl]pyrazolo[3,4-b]pyridine-6-carboxamide] | 79.7% | 3830 nM
6 | COCCNC(=O)c1cc(Cc2ccc(-c3cnn(C)c3)nc2)c2ccsc2n1 [Compound 127, N-(2-methoxyethyl)-4-[[6-(1-methylpyrazol-4-yl)-3-pyridyl]methyl]thieno[2,3-b]pyridine-6-carboxamide] | 63.8% | 270 nM
7 | COCC(C)NC(=O)c1cc(Cc2ccc(-n3cccn3)cc2)c2ccsc2n1 (stereo not shown) [Compound 86, N-(2-methoxy-1-methyl-ethyl)-4-[(4-pyrazol-1-ylphenyl)methyl]thieno[2,3-b]pyridine-6-carboxamide] | 62% | 690 nM
8 | COCC(C)NC(=O)c1cc(Cc2ccc(-c3ccn(C)n3)cc2)c2ccsc2n1 (stereo not shown) [Compound 100, N-(2-methoxy-1-methyl-ethyl)-4-[[4-(1-methylpyrazol-3-yl)phenyl]methyl]thieno[2,3-b]pyridine-6-carboxamide] | 63.5% | 480 nM
9 | Cn1cc(-c2ccc(Cc3cc(C(=O)NCC4CCOC4)nc4sccc34)cn2)cn1 (stereo not shown) [Compound 122, 4-[[6-(1-methylpyrazol-4-yl)-3-pyridyl]methyl]-N-(tetrahydrofuran-3-ylmethyl)thieno[2,3-b]pyridine-6-carboxamide] | 57.5% | 700 nM
10 | Cn1ccc(-c2ccc(Cc3cc(C(=O)NC4CC5(COC5)C4)nc4c3ccn4C)cn2)n1 [Compound 149, 1-methyl-4-[[6-(1-methylpyrazol-3-yl)-3-pyridyl]methyl]-N-(2-oxaspiro[3.3]heptan-6-yl)pyrrolo[2,3-b]pyridine-6-carboxamide] | 78.1% | 370 nM
11 | Cn1ncc2c(Cc3ccc(-c4cscn4)cc3)cc(C(=O)N[C@H]3CCCC[C@@H]3O)nc21 [Compound 28, N-[(1S,2S)-2-hydroxycyclohexyl]-1-methyl-4-[(4-thiazol-4-ylphenyl)methyl]pyrazolo[3,4-b]pyridine-6-carboxamide] | 76.4% | 130 nM
12 | Cc1nc(-c2ccc(Cc3cc(C(=O)N[C@H]4CCCC[C@@H]4O)nc4sccc34)cc2)co1 [Compound 129, N-[(1S,2S)-2-hydroxycyclohexyl]-4-[[4-(2-methyloxazol-4-yl)phenyl]methyl]thieno[2,3-b]pyridine-6-carboxamide] | 63.9% | 470 nM
13 | Cn1ccc2c(Cc3ccc(-c4cscn4)cc3)cc(C(=O)N[C@H]3CCCC[C@@H]3O)nc21 [Compound 22, N-[(1S,2S)-2-hydroxycyclohexyl]-1-methyl-4-[(4-thiazol-4-ylphenyl)methyl]pyrrolo[2,3-b]pyridine-6-carboxamide] | 63.3% | 40 nM
14 | CC1COCCC1NC(=O)c1cc(Cc2ccc(-c3cnn(C)c3)nc2)c2ccsc2n1 (stereo not shown) [Compound 118, 4-[[6-(1-methylpyrazol-4-yl)-3-pyridyl]methyl]-N-(3-methyltetrahydropyran-4-yl)thieno[2,3-b]pyridine-6-carboxamide] | 52.2% | 70 nM
15 | Cn1ncc2c(Cc3ccc(-n4cccn4)cc3)cc(C(=O)NC3CCOCC3)nc21 [Compound 5, 1-methyl-4-[(4-pyrazol-1-ylphenyl)methyl]-N-tetrahydropyran-4-yl-pyrazolo[3,4-b]pyridine-6-carboxamide] | 67.9% | 5940 nM
16 | Cn1ccc(-c2ccc(Cc3cc(C(=O)N[C@H]4CCCC[C@@H]4O)nc4c3ccn4C)cc2)n1 [Compound 38, N-[(1S,2S)-2-hydroxycyclohexyl]-1-methyl-4-[[4-(1-methylpyrazol-3-yl)phenyl]methyl]pyrrolo[2,3-b]pyridine-6-carboxamide] | 78.6% | 130 nM
17 | Cn1ccc(-c2ccc(Cc3cc(C(=O)N[C@H]4CCOC[C@@H]4O)nc4sccc34)cc2)n1 [Compound 89, N-[(3R,4S)-3-hydroxytetrahydropyran-4-yl]-4-[[4-(1-methylpyrazol-3-yl)phenyl]methyl]thieno[2,3-b]pyridine-6-carboxamide] | 41.2% | 40 nM
18 | Cn1ccc(-c2ccc(Cc3cc(C(=O)NC4CC5(COC5)C4)nc4sccc34)cn2)n1 [Compound 109, 4-[[6-(1-methylpyrazol-3-yl)-3-pyridyl]methyl]-N-(2-oxaspiro[3.3]heptan-6-yl)thieno[2,3-b]pyridine-6-carboxamide] | 56.8% | 150 nM
19 | CC1(C)CC(NC(=O)c2cc(Cc3ccc(-n4cccn4)cc3)c3ccsc3n2)CCO1 (stereo not shown) [Compound 72, N-(2,2-dimethyltetrahydropyran-4-yl)-4-[(4-pyrazol-1-ylphenyl)methyl]thieno[2,3-b]pyridine-6-carboxamide] | 69% | 1420 nM
20 | Cc1nc(-c2ccc(Cc3cc(C(=O)N[C@H]4CCOC[C@@H]4O)nc4c3ccn4C)cc2)co1 [Compound 51, N-[(3R,4S)-3-hydroxytetrahydropyran-4-yl]-1-methyl-4-[[4-(2-methyloxazol-4-yl)phenyl]methyl]pyrrolo[2,3-b]pyridine-6-carboxamide] | 83.4% | 30 nM
21 | Cn1cc(-c2ccc(Cc3cc(C(=O)N[C@H]4CCCC[C@@H]4O)nc4c3ccn4C)cn2)cn1 [Compound 46, N-[(1S,2S)-2-hydroxycyclohexyl]-1-methyl-4-[[6-(1-methylpyrazol-4-yl)-3-pyridyl]methyl]pyrrolo[2,3-b]pyridine-6-carboxamide] | 73.9% | 30 nM
22 | CC1COCCC1NC(=O)c1cc(Cc2ccc(-c3ccn(C)n3)cc2)c2ccsc2n1 (stereo not shown) [Compound 93, 4-[[4-(1-methylpyrazol-3-yl)phenyl]methyl]-N-(3-methyltetrahydropyran-4-yl)thieno[2,3-b]pyridine-6-carboxamide] | 59.5% | 740 nM
23 | O=C(N[C@H]1CCOC[C@@H]1O)c1cc(Cc2ccc(-n3cccn3)cc2)c2ccsc2n1 [Compound 70] | 47.8% | 10 nM
24 | Cn1ccc(-c2ccc(Cc3cc(C(=O)NC4CC(F)C4)nc4sccc34)cn2)n1 (stereo not shown) [Compound 110, N-(3-fluorocyclobutyl)-4-[[6-(1-methylpyrazol-3-yl)-3-pyridyl]methyl]thieno[2,3-b]pyridine-6-carboxamide] | 58.4% | 60 nM
25 | Cn1ccc2c(Cc3ccc(-c4nccs4)cc3)cc(C(=O)NC3CC4(COC4)C3)nc21 [Compound 62, 1-methyl-N-(2-oxaspiro[3.3]heptan-6-yl)-4-[(4-thiazol-2-ylphenyl)methyl]pyrrolo[2,3-b]pyridine-6-carboxamide] | 60.6% | 870 nM
26 | Cn1ccc(-c2ccc(Cc3cc(C(=O)NC4CC(F)(F)C4)nc4sccc34)cc2)n1 [Compound 98, N-(3,3-difluorocyclobutyl)-4-[[4-(1-methylpyrazol-3-yl)phenyl]methyl]thieno[2,3-b]pyridine-6-carboxamide] | 68.7% | 1650 nM
27 | Cn1ccc(-c2ccc(Cc3cc(C(=O)NC4COC4)nc4c3ccn4C)cc2)n1 [Compound 44, 1-methy1-4-[[4-(1-methylpyrazol-3-yl)phenyl]methyl]-N-(oxetan-3-yl)pyrrolo[2,3-b]pyridine-6-carboxamide] | 56.1% | 6280 nM
28 | Cn1ccc(-c2ccc(Cc3cc(C(=O)NC4CC5(COC5)C4)nc4sccc34)cc2)n1 [Compound 96, 4-[[4-(1-methylpyrazol-3-yl)phenyl]methyl]-N-(2-oxaspiro[3.3]heptan-6-yl)thieno[2,3-b]pyridine-6-carboxamide] | 69.9% | 280 nM
29 | Cn1ccc(-c2ccc(Cc3cc(C(=O)NC4CCOC(C)(C)C4)nc4sccc34)cn2)n1 (stereo not shown) [Compound 103, N-(2,2-dimethyltetrahydropyran-4-yl)-4-[[6-(1-methylpyrazol-3-yl)-3-pyridyl]methyl]thieno[2,3-b]pyridine-6-carboxamide] | 60.5% | 70 nM
